Measured values from patent US20240190855A1 (Relay Therapeutics, Inc., priority 2021, published 2024).

Molecular target: T1, CDK2/Cyclin E complex (Homo sapiens, UniProt P24941)
T1 construct: purchased Eurofins 14-475
Experiment: CDK2/Cyclin E fluorescence-based microfluidic mobility shift assay (CDK2 Biochemical Caliper Assay)
Details: read-out: Biochemical CDK2/CyclinE Caliper IC50
In short: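 Microfluidic mobility-shift readout after EDTA termination measured phosphorylation of fluorescent FL Peptide 18 (1.5 uM final) in a 20 hr room-temperature reaction. Compounds were tested at 11 concentrations (3-fold).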

SMILES	IC50
COCc1cc(C(=O)Nc2cc([C@H]3C[C@@H](COc4cn(C)nc4C(C)(C)C)C3)[nH]n2)n(C)n1 [Example 642]	100 to 250 nM
CC(C)NC(=O)N[C@@H]1CC[C@H](c2cc(Nc3ncccn3)n[nH]2)C1 (single isomer, unassigned) [Example 86]	1000 to 100000 nM
COCc1cc(C(=O)Nc2cc([C@H]3C[C@H](COC(=O)NC(C)C)C3)[nH]n2)n(C)n1 [Example 461]	1000 to 100000 nM
Cc1cncc(O[C@@H]2CC[C@H](c3cc(NC(=O)Cc4cc(C)no4)n[nH]3)C2)c1 (single isomer, unassigned) [Example 355]	250 to 1000 nM
C#CC1CN(C(=O)O[C@@H]2CC[C@H](c3cc(NC(=O)Cc4cc(C)no4)n[nH]3)C2)C1 [Example 660]	100 to 250 nM
Cc1cc(CC(=O)Nc2cc([C@H]3CC[C@H](O)C3)[nH]n2)on1 (single isomer, unassigned) [Example 377]	1000 to 100000 nM
Cc1cc(Nc2cc(C3CCCC3)[nH]n2)n2nc(C)cc2n1 [Example 802]	1000 to 100000 nM
Cn1nc(CO)cc1C(=O)Nc1cc([C@H]2C[C@@H](OC(=O)NC3(C)CC3)CO2)[nH]n1 [Example 902]	250 to 1000 nM
COCc1cc(C(=O)Nc2cc([C@H]3CC[C@@H](c4ccc(C)nn4)C3)[nH]n2)n(C)n1 (single isomer, unassigned) [Example 572]	1000 to 100000 nM
COCc1cc(C(=O)Nc2cc([C@H]3CC[C@@H](c4cccc(C(C)C)n4)C3)[nH]n2)n(C)n1 (single isomer, unassigned) [Example 605]	1000 to 100000 nM
COc1cccc2ccc(Nc3cc(C4CCCC4)[nH]n3)nc12 [Example 868]	1000 to 100000 nM
Cc1cc(CC(=O)Nc2cc([C@@H]3CC[C@H](Oc4ccccc4C(C)C)C3)[nH]n2)on1 (single isomer, unassigned) [Example 390]	100 to 250 nM
Fc1cnc(Nc2cc(C3CCCC3)[nH]n2)c2ccccc12 [Example 860]	1000 to 100000 nM
COCc1cc(C(=O)Nc2cc([C@H]3C[C@H](COc4nscc4C4CC4)C3)[nH]n2)n(C)n1 [Example 455]	1000 to 100000 nM
COCc1cc(C(=O)Nc2cc([C@@H]3CC[C@H](Oc4cnccc4C)C3)[nH]n2)n(C)n1 (single isomer, unassigned) [Example 367]	100 to 250 nM
COCc1cc2c(Nc3cc([C@H]4C[C@@H](OC(=O)N5CC6CC(C6)C5)CO4)[nH]n3)nccn2n1 [Example 733]	100 to 250 nM
O=c1cc(Nc2cc(C3CCCC3)[nH]n2)c2ncccc2[nH]1 [Example 873]	1000 to 100000 nM
COCc1cc(C(=O)Nc2cc([C@@H]3CC[C@@H](c4cc(C(C)C)ncn4)C3)[nH]n2)n(C)n1 (single isomer, unassigned) [Example 604]	1000 to 100000 nM
Cc1nc(Nc2cc(C3CCCC3)[nH]n2)cc(-c2ccco2)n1 [Example 853]	1000 to 100000 nM
Cc1c(Nc2cc(C3CCCC3)[nH]n2)nn2cnnc2c1C [Example 866]	1000 to 100000 nM

SMILES	IC50
Cc1cc(CC(=O)Nc2cc([C@@H]3CC[C@H](OC(=O)[C@H](N)C(C)C)C3)[nH]n2)on1 (single isomer, unassigned) [Example 451]	100 to 250 nM
Cc1cc(CC(=O)Nc2cc([C@@H]3CC[C@H](CC(=O)O)C3)[nH]n2)on1 (single isomer, unassigned) [Example 342]	1000 to 100000 nM
CC1(NC(=O)O[C@H]2CO[C@@H](c3cc(Nc4nccc5nc(C(F)(F)F)cn45)n[nH]3)C2)CC1 [Example 901]	≤ 100 nM
CC1(NC(=O)O[C@H]2CO[C@@H](c3cc(Nc4nccn5nc(C6CC6)cc45)n[nH]3)C2)CC1 [Example 754]	≤ 100 nM
Cc1cnn(-c2ccnc(Nc3cc([C@@H]4CC[C@H](OC(=O)NC(C)C)C4)[nH]n3)c2)c1 (single isomer, unassigned) [Example 403]	100 to 250 nM
COCc1nc2cc(Nc3cc([C@@H]4CC[C@H](OC(=O)NC(C)C)C4)[nH]n3)ncc2s1 (single isomer, unassigned) [Example 112]	100 to 250 nM
Cc1cc(CC(=O)Nc2cc([C@H]3CC[C@@H](Oc4cnccc4C)C3)[nH]n2)on1 (single isomer, unassigned) [Example 380]	100 to 250 nM
COCc1cc(C(=O)Nc2cc([C@@H]3CC[C@H](Oc4cncnc4)C3)[nH]n2)n(C)n1 (single isomer, unassigned) [Example 388]	1000 to 100000 nM
COCc1nc2ccnc(Nc3cc([C@H]4C[C@@H](OC(=O)NC5(C)CC5)CO4)[nH]n3)c2s1 [Example 681]	≤ 100 nM
CN1CCc2c(ccnc2Nc2cc([C@H]3C[C@@H](OC(=O)NC4(C)CC4)CO3)[nH]n2)C1 [Example 758]	1000 to 100000 nM
Cc1cc(CC(=O)Nc2ncc([C@H]3CC[C@@H](OC(=O)NC(C)C)C3)s2)on1 (single isomer, unassigned) [Example 442]	≤ 100 nM
Cn1nc(COC(F)(F)F)cc1C(=O)Nc1cc([C@H]2C[C@@H](OC(=O)NC34C5C6C7C5C3C7C64)CO2)[nH]n1 (stereo partly shown) [Example 884]	≤ 100 nM
COCc1cc2c(Nc3cc([C@H]4C[C@@H](OC(=O)N[C@H](C)CC(F)(F)F)CO4)[nH]n3)nccn2n1 [Example 638]	≤ 100 nM
Cn1ncc2c(Nc3cc([C@H]4C[C@@H](OC(=O)NC5(C)CC5)CO4)[nH]n3)nccc21 [Example 747]	250 to 1000 nM
COCc1cc(C(=O)Nc2cc([C@H]3CC[C@H](c4ncc(C)cn4)C3)[nH]n2)n(C)n1 (single isomer, unassigned) [Example 595]	1000 to 100000 nM
CC(C)NC(=O)O[C@H]1CO[C@@H](c2cc(Nc3nccc4ncsc34)n[nH]2)C1 [Example 433]	≤ 100 nM
COCc1cc2c(Nc3cc([C@H]4C[C@@H](Oc5nn(C)cc5C(C)(C)C)CO4)[nH]n3)nccn2n1 [Example 783]	1000 to 100000 nM
COCc1cc(C(=O)Nc2cc([C@@H]3CC[C@H](Oc4nnccc4C4CC4)C3)[nH]n2)n(C)n1 (single isomer, unassigned) [Example 471]	≤ 100 nM
COCc1cc(C(=O)Nc2cc([C@@H]3CC[C@H](c4cnc(C)cn4)C3)[nH]n2)n(C)n1 (single isomer, unassigned) [Example 577]	1000 to 100000 nM
COCc1cc2c(Nc3cc([C@H]4C[C@@H](OC(=O)NC(C)(C)C(F)F)CO4)[nH]n3)nccn2n1 [Example 647]	≤ 100 nM

Now from value to compound:

IC50	SMILES
≤ 100 nM	COCc1cc2c(Nc3cc([C@H]4C[C@@H](COc5nncn5C5(C)CC5)C4)[nH]n3)nccn2n1 [Example 690]
≤ 100 nM	CC(=O)Nc1nc2ccnc(Nc3cc([C@H]4CC[C@@H](OC(=O)NC(C)C)C4)[nH]n3)c2s1 (single isomer, unassigned) [Example 423]
≤ 100 nM	COCc1cc2c(Nc3cc([C@H]4C[C@@H](Oc5nnccc5C(C)C)CO4)[nH]n3)nccn2n1 [Example 496]
≤ 100 nM	Cc1cc(CC(=O)Nc2cc([C@H]3CC[C@@H](Oc4nscc4C4CC4)C3)[nH]n2)on1 (single isomer, unassigned) [Example 127]
≤ 100 nM	CC(C)n1cnnc1O[C@H]1CO[C@@H](c2cc(NC(=O)c3cc(COC(F)(F)F)nn3C)n[nH]2)C1 [Example 699]
≤ 100 nM	CC(C)NC(=O)O[C@H]1CO[C@@H](c2cc(Nc3nccn4nc(CN5CCCC5)cc34)n[nH]2)C1 [Example 676]
≤ 100 nM	CC(C)(C)n1cnnc1OC[C@H]1C[C@@H](c2cc(Nc3nccn4nccc34)n[nH]2)C1 [Example 637]
≤ 100 nM	Cn1nc(COC(F)(F)F)cc1C(=O)Nc1cc([C@H]2C[C@@H](OC(=O)NC(C)(C)C)CO2)[nH]n1 [Example 713]
≤ 100 nM	COCc1cc(C(=O)Nc2cc([C@H]3CC[C@@H](Oc4nnccc4C(C)C)CC3)[nH]n2)n(C)n1 [Example 627]
≤ 100 nM	Cc1ncccc1O[C@H]1CC[C@@H](c2cc(Nc3ncnc4ncccc34)n[nH]2)C1 (single isomer, unassigned) [Example 487]
≤ 100 nM	COC12CC(NC(=O)O[C@H]3CO[C@@H](c4cc(NC(=O)c5cc(COC(F)(F)F)nn5C)n[nH]4)C3)(C1)C2 [Example 913]
≤ 100 nM	COCc1cc(C(=O)Nc2cc([C@H]3C[C@@H](Oc4nnccc4C(C)C)CO3)[nH]n2)n(C)n1 [Example 458]
≤ 100 nM	CNC(=O)O[C@@H]1CC[C@H](c2cc(Nc3ccc4c(n3)C(C)(C)NC4=O)n[nH]2)C1 (single isomer, unassigned) [Example 529]
≤ 100 nM	COCc1cc2c(Nc3cc([C@H]4C[C@@H](OC(=O)N[C@@H](C)CC(F)(F)F)CO4)[nH]n3)nccn2n1 (single isomer, unassigned) [Example 739]
≤ 100 nM	COCc1cc2c(Nc3cc([C@H]4C[C@@H](COc5[nH]ncc5C(C)C)C4)[nH]n3)nccn2n1 [Example 718]
≤ 100 nM	COCc1cc(C(=O)Nc2cc([C@H]3C[C@@H](Oc4[nH]ncc4C(C)C)CO3)[nH]n2)n(C)n1 [Example 896]
≤ 100 nM	COCc1cc2c(Nc3cc([C@H]4C[C@@H](OC(=O)NC5(C)COC5)CO4)[nH]n3)nccn2n1 [Example 700]
≤ 100 nM	CCOC(=O)c1cc2c(Nc3cc([C@@H]4CC[C@H](OC(=O)NC(C)C)C4)[nH]n3)nc(C)cn2n1 (single isomer, unassigned) [Example 463]
≤ 100 nM	CC(C)NC(=O)O[C@H]1CO[C@@H](c2cc(NC(=O)c3cc(COC(F)(F)F)nn3C)n[nH]2)C1 [Example 706]
≤ 100 nM	CC1(NC(=O)O[C@H]2CO[C@@H](c3cc(Nc4nccc5nccn45)n[nH]3)C2)CC1 [Example 735]
≤ 100 nM	COCc1nc2ccnc(Nc3cc([C@@H]4CC[C@H](Oc5nnccc5C(C)C)C4)[nH]n3)c2s1 (single isomer, unassigned) [Example 445]
≤ 100 nM	COCc1cc2c(Nc3cc([C@H]4C[C@@H](OC(=O)N[C@@H](C)C(F)F)CO4)[nH]n3)nccn2n1 [Example 763]
≤ 100 nM	COCc1cc(C(=O)Nc2cc([C@H]3C[C@@H](COc4nncn4C(C)(C)C)C3)[nH]n2)n(C)n1 [Example 632]
≤ 100 nM	c1cncc(OC[C@H]2C[C@@H](c3cc(Nc4nccn5nccc45)n[nH]3)C2)c1 [Example 536]
